Source: US20230302022A1, “PREVENTING OR MITIGATING CHEMOTHERAPY INDUCED ALOPECIA USING VITAMIN D” (priority 2016, published 2023)
“Also recorded” adds a separate entry of the source.

Assays:
[1] = system: Long Evans rats; assay: CIA in chloroleukemic Long Evans rats receiving multi-course chemotherapy; type: in vivo, rat; parameters: protection from CIA: concentration or dose not given beside the values; settings: for protection from CIA: both cycles
[2] = system: PaCa2 (pancreatic carcinoma); assay: Cell growth / viability assay, PaCa2; type: cell-based
Procedure: (§1) The drug treatment period was usually three days. At the end of the three days, the background OD of the 96-well plate was read at 280 nm, before 20 μL of the “Substrate Cell Titer 96 Aqueous One Solution Reagent” (Promega) was added to each well. The plate was returned to the 37° C. incubator, and its OD at 490 nm was read each hour until an OD of approximately 1.5 was reached. The net OD increase was calculated by subtracting the pre-substrate OD reading.
(§2) The impact of the drug on the cells was calculated by comparing the OD at different concentrations in relation to the OD of the control wells (without the drug).
(§3) Then these pretreated cells were utilized to set up the cell based assay.

[3] = Quantification of calcitriol in ex vivo porcine skin layers after 7 days of dermal administration; settings: for Stratum Corneum, Calcitriol Recovered: 10 μg/mL, mean ± SD
Procedure: The placebo and test articles were administered dermally twice daily approximately 6 hours apart for 7 days during the study. The dose concentrations were 0, 1, 3, 10, 30, and 100 μg/mL, and administered at an application rate of 4 mg/cm^2 (equivalent to 144 mg or 166 μL of test solution). Prior to initiation of administration (Days −4 and −5 for Groups 1 and 2, respectively), the hair was clipped from the application sites using an electric clipper. Care was taken to avoid abrading the skin. The dorsal surface of each animal was divided into five application sites for Group 1 and two application sites for Group 2. Each application site was approximately 6×6 cm with at least a 2 cm space between each site. The placebo and test article formulations were uniformly applied over the specified application site with a glass stirring rod or appropriate instrument. Prior to dosing, the residual test article from the previous dose was gently removed using a soft paper towel (i.e., WyPall®) moistened with tap water.
At the end of the study, the skin was reflected from a ventral midline incision, and sections of treated and untreated skin were collected and preserved. Sections of each 6×6 cm dosing site were first thoroughly surface washed with a mild soap and water mixture (e.g., 1% Ivory Soap in water or equivalent) to remove any residual topical test formulation. The washed skin sections were then wiped clean with ethanol, and were excised down to and including the adipose layer. If the area to be excised is larger than the dosed area, the dosed area was demarked with indelible ink to delineate the skin area that was dosed. The 1.5 cm×1.5 cm sections were laid flat, wrapped in two layers of Saran wrap (or equivalent) and flash frozen in liquid nitrogen. The samples were stored at −70° C. and shipped on dry ice via overnight courier for analysis. Each skin section was identified as appropriate (e.g., animal identification, study number, date, etc.).
Upon arrival at the analysis site, skin sections were placed in water tight plastic bag and thawed by emersion in warm water (˜30° C.-35° C.). Each skin section was gently rinsed with distilled de-ionized water to remove any residual test article and blood. All subcutaneous tissue (e.g., adipose) was removed by manual scalpel ablation. Within the central region of the dosed area, four individual 1 cm^2 circles (replicates) were demarked, and each site was subsequently identified and the actual area recorded. […] The skin sections were weighed and the weight recorded. […]
Following tape stripping, the skin was separated into epidermis (sans stratum corneum, simply referred to herein after as “epidermis”) and dermis by heat exposure to 60° C. for approximately 1-1.5 minutes. […] The epidermis and dermis were weighed and the weight recorded. […]

[4] = system: SkBr-3 (breast adenocarcinoma cancer, Her2 overexpressed); assay: Cell growth / viability assay, SkBr-3; type: cell-based
Procedure: (§4) The drug treatment period was usually three days. At the end of the three days, the background OD of the 96-well plate was read at 280 nm, before 20 μL of the “Substrate Cell Titer 96 Aqueous One Solution Reagent” (Promega) was added to each well. […] The net OD increase was calculated by subtracting the pre-substrate OD reading. The impact of the drug on the cells was calculated by comparing the OD at different concentrations in relation to the OD of the control wells (without the drug). The results of the Net OD as a function of drug concentration was plotted and used to determine ED50 values.

[5] = system: BALB/c mice; settings: cited from earlier work
[6] = system: Gottingen Minipigs; assay: 4-week dermal toxicity study in Gottingen Minipigs; settings: twice daily, 29 consecutive days, 2.1 mL
Procedure: Observations for morbidity, mortality, injury, and the availability of food and water were conducted twice daily for all animals. Clinical observations were conducted weekly.

[7] = system: HEKa cells; assay: 2-D gel electrophoresis proteomic analysis of calcitriol-treated HEKa cells; type: cell-based, human; settings: 0.1 μg/mL calcitriol, 3, 6, 24 hours vs control
Procedure: The cell pellets were then analyzed using proteomic methods, such as 2-D gel and Western blot analysis. […] In all, analysis of about 458 protein spots in the comparative study was performed, comparing the control sample against the 3-, 6-, and 24-hour treatment samples. Six spots showing statistically significant differential changes were identified. These spots were excised, and their protein contents subjected to sequence identification by trypsin digestion and mass spectrometry characterization.

[8] = system: HEKa cells; assay: HEKa keratinocyte growth / viability assay, with and without chemotherapy drugs; type: cell-based, human
Procedure: All experiments were conducted in 96-well plate format. Each well contained the same amount of HEKa cells in about 100 μL of media (usually between 2,000-5,000 cell/well). Calcitriol was dissolved in ethanol to make a stock solution. The stock solution was serially diluted 1:2 in the growth media, covering a range of between 4.0 μg/mL to about 15.5 ng/mL (9 test concentrations). […] All experiments were conducted in duplicates.
In these experiments, a selected commercial drug was serially diluted, starting at a concentration 4-times higher than the final desired concentration for cell incubation.
as §1
The impact of the drug on the cells was calculated by comparing the OD at different concentrations in relation to the OD of the control wells (without the drug). The results of the Net OD as a function of drug concentration was plotted and used to determine ED50 values.
as §3
Three commonly used chemotherapy drugs (doxorubicin, cisplatin and erlotinib) were selected to evaluate calcitriol treated cells. […] In these experiments, the commercial drugs were serially diluted, starting at a concentration 4-times higher than the final desired concentration for cell incubation.

[9] = system: Long Evans and Sprague Dawley rats; assay: Chemotherapy-induced alopecia (CIA) in the neonatal rat, topical calcitriol formulation; type: in vivo
[10] = system: PC-3; assay: Cell viability assay, PC-3; type: cell-based; settings: PC-3, 0.1 μg/mL calcitriol for two passages
Procedure: as §1, §2, §3

[11] = system: squamous cell carcinoma and human prostate cell carcinoma; settings: 2.5 μg 3 doses daily for 3 days, followed by paclitaxel; cited from earlier work
[12] = system: NCI-ES-0808; assay: Cell growth / viability assay, NCI-ES-0808; type: cell-based
Procedure: as §4

[13] = system: SKMEL-28 (melanoma); assay: Cell growth / viability assay, SKMEL-28; type: cell-based
Procedure: as §4

[14] = system: Sprague-Dawley or Long Evans rats; assay: CIA in 5-day-old Sprague-Dawley or Long Evans rats, calcitriol 1, 2 or 3 μg/mL; type: in vivo, rat
[15] = 0.1 μg/mL calcitriol, low dosage levels

C=C1/C(=C\C=C2/CCC[C@]3(C)[C@@H]([C@H](C)CCCC(C)(C)O)CC[C@@H]23)C[C@@H](O)C[C@@H]1O [Calcitriol, (5Z,7E)-9,10-secocholesta-5,7.10(19Hriene-1 a,33.25-triol]
ALOPECIA 0 (number of rats) ([1]; ADM, Paclitaxel and Etoposide, after First Round): 40
ALOPECIA 0 (number of rats) ([1]; ADM, Paclitaxel and Etoposide, after Second Round): 32
ALOPECIA 0 (number of rats) ([1]; CTX and Doxorubicin (ADM), after First Round): 40
ALOPECIA 0 (number of rats) ([1]; CTX and Doxorubicin (ADM), after Second Round): 20
ALOPECIA 0 (number of rats) ([1]; CTX, ADM and Cytarabine (ARA-C), after First Round): 40
ALOPECIA 0 (number of rats) ([1]; CTX, ADM and Cytarabine (ARA-C), after Second Round): 31
ALOPECIA 0 (number of rats) ([1]; CTX, Paclitaxel and Etoposide, after First Round): 40
ALOPECIA 0 (number of rats) ([1]; CTX, Paclitaxel and Etoposide, after Second Round): 33
ALOPECIA 0 (number of rats) ([1]; Cyclophosphamide (CTX), after First Round of Chemotherapy): 40
ALOPECIA 0 (number of rats) ([1]; Cyclophosphamide (CTX), after Second Round of Chemotherapy): 10
protection from CIA ([1]; cyclophosphamide and doxorubicin group): 100%
extent of alopecia (grade), all rats ([1]; cyclophosphamide and doxorubicin regimen, after the first round): did not exhibit any signs of alopecia
protection from CIA ([1]; cyclophosphamide group): 100%
extent of alopecia (grade), all rats ([1]; cyclophosphamide regimen, after the first round of chemotherapy): did not exhibit any signs of alopecia
protection from CIA ([1]; cyclophosphamide, doxorubicin and cytarabine group): 100%
extent of alopecia (grade), all rats ([1]; cyclophosphamide, doxorubicin and cytarabine regimen, after the first round): did not exhibit any signs of alopecia
protection from CIA ([1]; cyclophosphamide, paclitaxel and etoposide group): 100%
extent of alopecia (grade), all rats ([1]; cyclophosphamide, paclitaxel and etoposide regimen, after the first round): did not exhibit any signs of alopecia
protection from CIA ([1]; doxorubicin, paclitaxel and etoposide group): 100%
extent of alopecia (grade), all rats ([1]; doxorubicin, paclitaxel and etoposide regimen, after the first round): did not exhibit any signs of alopecia
effect of calcitriol on cell growth ([2]; PaCa2, wide range of calcitriol concentrations): no significant growth promoting or growth inhibiting effects; also recorded: not responsive
effect of calcitriol on the cytotoxic effect of Doxorubicin ([2]; PaCa-2): did not appear to appreciably alter
5-FU ED50 curve with vs without calcitriol ([2]; PaCa-2, 0.1 μg/mL calcitriol): not significantly different
response to doxorubicin, cisplatin and erlotinib after calcitriol exposure ([2]; PaCa-2, 0.1 μg/mL calcitriol for two passages): did not alter
skin layers in which calcitriol was measurable ([3]; 1-100 μg/mL, exception: dermis at 100 μg/mL in a single male minipig): measurable in most stratum corneum and epidermal samples, but not in the dermal samples
applied dose correlation to epidermal tissue level ([3]; 3 to 100 μg/mL applications): near linear increase
Stratum Corneum, Calcitriol Recovered ([3]; Female Minipigs): 1.65 ± 1.80 (3) ng/cm^2
Stratum Corneum, Calcitriol Recovered ([3]; Male Minipigs): 59.6 ± 14.1 (3) ng/cm^2
effect of calcitriol on cell growth [4]: no significant growth promoting or growth inhibiting effects
effect of calcitriol on the cytotoxic effect of Doxorubicin [4]: does not appreciably alter; also recorded: did not appear to appreciably alter
protective effect in tumor-bearing female mice ([5]; EMT-6, vs female mice without tumor and tumor-bearing males): more efficient protective effect
protective effect in tumor-bearing male mice ([5]; EMT-6 tumor cells): diminished
degree of CIA ([5]; male BALB/c mice, topical 5 days prior to cyclophosphamide): significantly reduced the degree of CIA in a dose-dependent manner
apoptosis staining pattern vs unexposed mice ([5]; mouse, in vivo): no significant differences in apoptosis staining pattern
no-observed-adverse-effect-level (NOAEL) [6]: 10.31 µg/mL
Galectin 1 (LGALS1) Response [7]: up at 6 and 24
Glutathione S-transferase (GST) Response [7]: up at 3, 6, and 24
Keratin 17 (KR17) Response [7]: down at 24 hours
S100 A9 (Calprotectin) Response [7]: down at 6 and 24
S100 A13 Response [7]: up at 6 and 24
protective effect against 5-FU ([8]; 0.1 μg/mL calcitriol): protects; also recorded: mild protective effect; also recorded: some levels of protection
protective effect against doxorubicin ([8]; 0.1 μg/mL calcitriol): did not appear to provide a significant protective effect
protective effect against gemcitabine ([8]; 0.1 μg/mL calcitriol): mild protective effect
protective effect against irinotecan ([8]; 0.1 μg/mL calcitriol): positive protective effect
protective effect against paclitaxel (Paxlitaxol) ([8]; 0.1 μg/mL calcitriol): some protective effects
protective effect against tamoxifen ([8]; 0.1 μg/mL calcitriol): weak
HEKa growth after prolonged calcitriol exposure ([8]; 0.1 μg/mL calcitriol for two cell passages): stopped growing
protection against carboplatin [8, 15]: moderate level of protection
protection against cisplatin [8, 15]: moderate level of protection
protective effect against kinase inhibitor drugs (erlotinib, gefitinib, sorafenib, dasatinib, staurosporin) ([8]; 0.1 μg/mL calcitriol, low drug dosage levels): protected the HEKa cells
interaction (synergy) between calcitriol and commercial drugs ([8]; 0.1 μg/mL calcitriol, 5-FU, doxorubicin, tamoxifen, irinotecan, paclitaxel, carboplatin, staurosporin, vincristine, cisplatin, erlotinib, gemcitabine, imatinib, gefitinib, sorafenib, dasatinib): no interaction
chemoprotective effect: pre-treatment group vs simultaneous treatment group ([8]; 0.1 μg/mL calcitriol, doxorubicin, cisplatin, erlotinib): nearly identical
stimulation of HEKa cell growth ([8]; lowest levels of calcitriol (tested range about 0.008-2.0 μg/mL)): 10-20%
calcitriol concentration at which HEKa cell growth is inhibited ([8]; tested range about 0.008-2.0 μg/mL): ≥ 1.0 µg/mL
protection from cytarabine-induced alopecia [9]: protective effect
response to doxorubicin, cisplatin and erlotinib after calcitriol exposure [10]: did not alter
tumor response [11]: significant tumor regression
effect of calcitriol on cell growth [12]: no significant growth promoting or growth inhibiting effects
effect of calcitriol on the cytotoxic effect of Doxorubicin [12]: did not appear to appreciably alter
effect of calcitriol on cell growth ([13]; SKMEL-28): no significant growth promoting or growth inhibiting effects
effect of calcitriol on the cytotoxic effect of Doxorubicin ([13]; SKMEL-28): did not appear to appreciably alter
5-FU ED50 curve with vs without calcitriol ([13]; SKMEL-28, 0.1 μg/mL calcitriol): not significantly different
location of hair growth ([14]; 1 μg/mL): limited to the treated area
location of hair growth ([14]; 3 μg/mL): also observed on the dorsal region
protection from CIA ([14]; 6-hour exposure): complete protection
protection from CIA ([14]; 1.5 hour exposure): no protection
